Assay [1] concerns wild type Marchantia plants. The experiment in a line: Lethal concentration determination: Marchantia spores plated on Johnson's medium agar supplemented with herbicide, 14-day old sporelings. In kind it is in vivo, Marchantia polymorpha. The protocol:
A lethal concentration of the herbicide hit was determined in the condition of the mutagenesis concentration. 20000 Marchantia spores were plated in 90 mm Petri dishes containing 25 mL of Johnson's medium containing 1.4% agar and supplemented with a range of herbicide hit concentrations ranging from 1 to 50000 nM. The lethal concentration was defined as the minimum concentration of herbicide hit sufficient to kill 100% of the wild type Marchantia plants (FIG. 11).
If no lethal concentration was observed, the highest concentration would be used in place of the lethal concentration provided that it caused the plants to show a phenotype distinct from the phenotype of untreated plants. For example, this alternative phenotype may be a strong reduction in growth (FIG. 12) or a marked change in the shape of the plants, or a change in plant pigmentation.
Marchantia polymorpha spores were irradiated with ultraviolet B irradiation and seven independent mutant lines resistant to the herbicide chlorsulfuron were identified. Chlorsulfuron resistance was determined by a Marchantia polymorpha plant that was alive two weeks following exposure to a lethal dose of Chlorsulfuron (0.1 ppm dose, i.e. a dose sufficient to kill 100% of wild-type plants).

The next assay relates to Marchantia polymorpha. The settings on record: stated as known, like liverworts in general; cited from earlier work.
Setting [2] is: 1000 μM herbicide, 14-day old sporelings in Petri dishes, three replicates.

Each structure is given as a SMILES string.

Take `COc1nc(C)nc(NC(=O)NS(=O)(=O)c2ccccc2Cl)n1` [Chlorsulfuron]: in assay [1] (setting [2]), the growth of sporelings entry is listed as “marked reduction in growth” and the survival of sporelings entry is on record as “have not all died”. In assay [1] (wild-type Marchantia polymorpha, two weeks following exposure), the “lethal dose (dose sufficient to kill 100% of wild-type plants)” value came to 0.1 ppm.
Take `CNc1cnn(-c2cccc(C(F)(F)F)c2)c(=O)c1Cl` [Norflurazon]: the survival of sporelings entry in assay [1] (setting [2]) was “have all died”.
Consider `CP(=O)(O)CCC(N)C(=O)O` (stereo not drawn) [glufosinate], for which the “sensitivity of Marchantia polymorpha to the herbicide” value in the assay with Marchantia polymorpha was “insensitive”.
For the molecule `O=C(O)CNCP(=O)(O)O` [glyphosate], the “sensitivity of Marchantia polymorpha to the herbicide” value with Marchantia polymorpha was “insensitive”.
